Values after ≈ are worked out from the molar mass of the structure shown. Where only a bound is given, the exact number is not on record here.

What all share (type): cell-based
In assay [1] the test system is Escherichia Coli ATCC 25922. The settings on record: Mueller-Hinton broth, 37° C., 18 to 20 hours; for Minimal bactericidal concentration, Escherichia Coli ATCC 25922: plate counting on sheep blood agar. The protocol: (§1) Four strains were selected: Escherichia Coli ATCC 25922, Staphylococcus Aureus ATCC 25923, Pseudomonas Aeruginosa ATCC 27853 and a clinical isolated methicillin resistant Staphylococcus Aureus strain. Antibacterial activity of the molecules was tested by dilution method in Mueller-Hinton broth in order to determine the minimal inhibitory concentration (MIC) and the minimal bactericidal concentration (MBC). At least two independent assays were done. Stock solutions were obtained by solubilizing molecule powders in distilled water at concentration of 2.56 mg/mL and serial 2-fold diluted solutions were prepared. Bacterial inoculum was standardized by using direct suspensions of colonies from overnight growth in saline adjusted to a turbidity matching the 0.5 McFarland standard, and diluted to obtain a density comprised between 10^5 CFU/mL and 10^7 CFU/mL. Tubes containing 900 μL of inoculum with 100 μL of molecules solutions were incubated in air at 37° C. for 18 to 20 hours. Purity and inoculum density as well as percentage of viable bacteria in limpid tubes were checked by plate counting on sheep blood agar. Broth not containing any molecule solution was inoculated with each selected bacterial strain as a control for organism viability (growth control). The susceptibility of S. Aureus strains against vancomycin was used as an internal control as well as the activity of melittin.

In assay [2] the test system is Pseudomonas Aeruginosa ATCC 27853. The settings on record: Mueller-Hinton broth, 37° C., 18 to 20 hours; for Minimal bactericidal concentration, Pseudomonas Aeruginosa ATCC 27853: plate counting on sheep blood agar. Here is the method:
as §1

The test system of assay [3] is Staphylococcus Aureus ATCC 25923. Put plainly: microbe, parasite or virus in culture. The settings on record: for Minimal inhibitory concentration, Staphylococcus Aureus ATCC / Minimal bactericidal concentration, Staphylococcus Aureus ATCC: Mueller-Hinton broth, 37° C., 18 to 20 hours; for Minimal bactericidal concentration, Staphylococcus Aureus ATCC: plate counting on sheep blood agar. Here is the method: as §1

The subject of assay [4] is clinical isolated methicillin resistant Staphylococcus Aureus strain. Put plainly: microbe, parasite or virus in culture. The following applies: Mueller-Hinton broth, 37° C., 18 to 20 hours; for Minimal bactericidal concentration, clinical isolated methicillin resistant Staphylococcus Aureus strain: plate counting on sheep blood agar. The protocol: as §1

Consider `CC(C)NC(=O)N[C@H](CNC(=O)N[C@@H](CCCCN)CNC(=O)N[C@H](CNC(=O)N[C@H](CNC(=O)N[C@@H](CCCCN)CNC(=O)N[C@H](CNC(=O)N[C@@H](CCCCN)CNC(N)=O)Cc1c[nH]c2ccccc12)C(C)C)Cc1c[nH]c2ccccc12)C(C)C` [Mol-8], for which, in assay [1], the “Minimal inhibitory concentration, Escherichia Coli ATCC 25922” value was 32 µg/mL (≈ 25.4 µM) and the “Minimal bactericidal concentration, Escherichia Coli ATCC 25922” value is 256 µg/mL (≈ 203 µM). In assay [2], the “Minimal inhibitory concentration, Pseudomonas Aeruginosa ATCC 27853” value was found to be 64 µg/mL (≈ 50.8 µM) and the “Minimal bactericidal concentration, Pseudomonas Aeruginosa ATCC 27853” value is greater than 256 µg/mL. Also, in assay [3], the “Minimal inhibitory concentration, Staphylococcus Aureus ATCC” value was found to be 32 µg/mL (≈ 25.4 µM) and the “Minimal bactericidal concentration, Staphylococcus Aureus ATCC” value came out at 32 µg/mL (≈ 25.4 µM).
Turning to `CC(C)NC(=O)N[C@H](CNC(=O)N[C@@H](CCCCN)CNC(=O)N[C@H](CNC(=O)N[C@H](CNC(=O)N[C@@H](CCCCN)CNC(=O)N[C@H](CNC(=O)N[C@@H](CCCCN)CNC(=O)N[C@H](CCC(N)=O)C(C)C)Cc1c[nH]c2ccccc12)C(C)C)Cc1c[nH]c2ccccc12)C(C)C` [Mol-4], in assay [1], the “Minimal inhibitory concentration, Escherichia Coli ATCC 25922” value was found to be 32 µg/mL (≈ 23.1 µM) and the “Minimal bactericidal concentration, Escherichia Coli ATCC 25922” value was 64 µg/mL (≈ 46.1 µM). Further, in assay [2], the “Minimal inhibitory concentration, Pseudomonas Aeruginosa ATCC 27853” value is 128 µg/mL (≈ 92.2 µM) and the “Minimal bactericidal concentration, Pseudomonas Aeruginosa ATCC 27853” value was 256 µg/mL (≈ 184 µM). For the same molecule, in assay [4], the “Minimal inhibitory concentration, clinical isolated methicillin resistant Staphylococcus Aureus strain” value was found to be 16 µg/mL (≈ 11.5 µM) and the “Minimal bactericidal concentration, clinical isolated methicillin resistant Staphylococcus Aureus strain” value came to 64 µg/mL (≈ 46.1 µM). Also, in assay [3], the “Minimal inhibitory concentration, Staphylococcus Aureus ATCC” value turned out to be 8 µg/mL (≈ 5.76 µM) and the “Minimal bactericidal concentration, Staphylococcus Aureus ATCC” value is less than 16 µg/mL.
Regarding `CC[C@H](C)[C@H](NC(=O)CN)C(=O)NCC(=O)N[C@@H](C)C(=O)N[C@H](C(=O)N[C@@H](CC(C)C)C(=O)N[C@@H](CCCCN)C(=O)N[C@H](C(=O)N[C@@H](CC(C)C)C(=O)N[C@H](C(=O)N[C@H](C(=O)NCC(=O)N[C@@H](CC(C)C)C(=O)N1CCC[C@H]1C(=O)N[C@@H](C)C(=O)N[C@@H](CC(C)C)C(=O)N[C@H](C(=O)N[C@@H](CO)C(=O)N[C@@H](Cc1c[nH]c2ccccc12)C(=O)N[C@H](C(=O)N[C@@H](CCCCN)C(=O)N[C@@H](CCCNC(=N)N)C(=O)N[C@@H](CCCCN)C(=O)N[C@@H](CCCNC(=N)N)C(=O)N[C@@H](CCC(N)=O)C(=O)N[C@@H](CCC(N)=O)C(N)=O)[C@@H](C)CC)[C@@H](C)CC)[C@@H](C)O)[C@@H](C)O)C(C)C)C(C)C` [mellitin, reference compound], the “Minimal bactericidal concentration, Escherichia Coli ATCC 25922” value in assay [1] is greater than 256 µg/mL. In addition, in assay [2], the “Minimal inhibitory concentration, Pseudomonas Aeruginosa ATCC 27853” value is greater than 256 µg/mL and the “Minimal bactericidal concentration, Pseudomonas Aeruginosa ATCC 27853” value was greater than 256 µg/mL. In addition, in assay [4], the “Minimal inhibitory concentration, clinical isolated methicillin resistant Staphylococcus Aureus strain” value was determined as 32 µg/mL (≈ 11.2 µM) and the “Minimal bactericidal concentration, clinical isolated methicillin resistant Staphylococcus Aureus strain” value came to 128 µg/mL (≈ 45 µM).
On to `CN[C@H](CC(C)C)C(=O)N[C@H]1C(=O)N[C@@H](CC(N)=O)C(=O)N[C@H]2C(=O)N[C@H]3C(=O)N[C@H](C(=O)N[C@H](C(=O)O)c4cc(O)cc(O)c4-c4cc3ccc4O)[C@H](O)c3ccc(c(Cl)c3)Oc3cc2cc(c3O[C@@H]2O[C@H](CO)[C@@H](O)[C@H](O)[C@H]2O[C@H]2C[C@](C)(N)[C@H](O)[C@H](C)O2)Oc2ccc(cc2Cl)[C@H]1O` [vancomycin, reference compound], for which the MIC in assay [4] (Staphylococcus aureus, read-out: Minimal inhibitory concentration, clinical isolated methicillin resistant Staphylococcus Aureus strain) was 1 µg/mL (≈ 0.69 µM); in assay [3] (Staphylococcus aureus, ATCC25923, read-out: Minimal inhibitory concentration, Staphylococcus Aureus ATCC), 2 µg/mL (≈ 1.38 µM).

Values taken from patent US8138145B2, “Hybrid oligomers, their preparation process and pharmaceutical compositions containing them” (Centre National de la Recherche Scientifique (SNRS), priority 2005, dated 2012).
